Reference: patent publication US9326986B2, “Quinazolinone, quinolone and related analogs as sirtuin modulators” (GLAXOSMITHKLINE LLC, priority 2008, dated 2016)

Biological target: T1, SIRT1 (Homo sapiens, UniProt Q96EB6)
T1 sequence (Q96EB6 1-747): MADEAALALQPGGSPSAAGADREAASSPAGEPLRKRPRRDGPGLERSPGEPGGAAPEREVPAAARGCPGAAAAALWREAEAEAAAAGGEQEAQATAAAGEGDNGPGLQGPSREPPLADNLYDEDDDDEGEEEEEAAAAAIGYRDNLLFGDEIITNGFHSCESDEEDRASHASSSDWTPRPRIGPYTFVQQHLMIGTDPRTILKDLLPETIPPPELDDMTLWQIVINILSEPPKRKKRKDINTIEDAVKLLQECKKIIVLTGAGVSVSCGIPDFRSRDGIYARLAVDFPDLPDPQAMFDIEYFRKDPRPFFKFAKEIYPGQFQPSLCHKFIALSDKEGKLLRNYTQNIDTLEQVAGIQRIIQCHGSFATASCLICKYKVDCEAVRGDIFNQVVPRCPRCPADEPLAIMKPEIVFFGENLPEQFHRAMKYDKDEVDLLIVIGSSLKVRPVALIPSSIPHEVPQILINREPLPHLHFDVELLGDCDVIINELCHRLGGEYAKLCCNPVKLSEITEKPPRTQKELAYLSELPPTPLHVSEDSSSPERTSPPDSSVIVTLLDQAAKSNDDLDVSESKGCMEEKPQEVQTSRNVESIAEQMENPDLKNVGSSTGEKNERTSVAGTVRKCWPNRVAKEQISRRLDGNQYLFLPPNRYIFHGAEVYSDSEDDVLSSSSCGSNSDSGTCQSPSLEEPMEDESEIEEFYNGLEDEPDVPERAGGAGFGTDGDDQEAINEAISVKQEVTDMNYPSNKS
Assay: Mass spectrometry based assay to identify modulators of SIRT1 activity (deacetylation of p53-based acetylated peptide)
Type: biochemical
Conditions: 10 nM SIRT1, 0.5 μM peptide substrate, 120 μM βNAD+, 25 minutes at 25° C.; for EC1.5 μM: SIRT1 activation

SMILES | % Fold Act. (percent maximum fold activation) | EC1.5 μM
Cn1c(-c2cccc(C(F)(F)F)c2)nc2c(NC(=O)c3cncnc3)cccc2c1=O [Compound 241] | B (Fold Activation<200%) | C (EC1.5>25 μM)
Cn1c(-c2cccc(C(F)(F)F)c2)nc2c(C(=O)Nc3cccc(OC[C@@H](O)CO)n3)cccc2c1=O [Compound 356] | A (Fold activation>200%) | A (EC1.5<1.0 μM)
O=C(Nc1nccs1)c1cccc2c(=O)cc(-c3cccc(OC(F)F)c3)[nH]c12 [Compound 428] | A (Fold activation>200%) | A (EC1.5<1.0 μM)
Cn1c(-c2ccc(C(F)(F)F)cc2)nc2c(C(=O)Nc3ccccn3)cccc2c1=O [Compound 208] | B (Fold Activation<200%) | C (EC1.5>25 μM)
Cn1c(-c2cccc(C(F)(F)F)c2)nc2c(C(=O)Nc3ccc(OCC(O)CO)cc3)cccc2c1=O (centres unmarked) [Compound 273] | A (Fold activation>200%) | A (EC1.5<1.0 μM)
CCCn1c(-c2cccc(C(F)(F)F)c2)nc2c(NC(=O)c3cnccn3)cccc2c1=O [Compound 233] | A (Fold activation>200%) | A (EC1.5<1.0 μM)
O=C(Nc1ccccn1)c1cccc2c(=O)n(CCN3CCCC3)c(-c3cccc(C(F)(F)F)c3)nc12 [Compound 272] | B (Fold Activation<200%) | B (EC1.5 1-25 μM)
Cn1c(-c2cccc(C(F)(F)F)c2)nc2c(C(=O)Nc3cccc(OCC(O)CO)c3)cccc2c1=O (centres unmarked) [Compound 286] | A (Fold activation>200%) | A (EC1.5<1.0 μM)
O=C(Nc1nccs1)c1cccc2c(=O)cc(-c3ccccc3C(F)(F)F)[nH]c12 [Compound 427] | A (Fold activation>200%) | A (EC1.5<1.0 μM)
COc1cccc(C(=O)Nc2cccc3c(=O)cc(-c4cccc(C(F)(F)F)c4)[nH]c23)n1 [Compound 422] | A (Fold activation>200%) | A (EC1.5<1.0 μM)
Cn1c(-c2ccccc2OC(F)F)nc2c(NC(=O)c3cnccn3)cccc2c1=O [Compound 312] | A (Fold activation>200%) | A (EC1.5<1.0 μM)
Cn1cc(C(=O)Nc2cccc3c(=O)n(C)c(-c4cccc(C(F)(F)F)c4)nc23)cn1 [Compound 268] | B (Fold Activation<200%) | C (EC1.5>25 μM)
Cn1c(-c2cccc(C(F)(F)F)c2)nc2c(C(=O)Nc3nc(CN4CCCC4)cs3)cccc2c1=O [Compound 357] | A (Fold activation>200%) | A (EC1.5<1.0 μM)
O=C(Nc1cccnc1)c1cccc2c(=O)cc(-c3ccccc3OC(F)(F)F)[nH]c12 [Compound 439] | A (Fold activation>200%) | A (EC1.5<1.0 μM)
Cn1c(-c2cccc(C(F)(F)F)c2)nc2c(C(=O)Nc3ccnc(CN4CCNCC4)n3)cccc2c1=O [Compound 347] | A (Fold activation>200%) | A (EC1.5<1.0 μM)
Cn1c(-c2cccc(OC(F)F)c2)nc2c(NC(=O)c3cnccn3)cccc2c1=O [Compound 315] | A (Fold activation>200%) | A (EC1.5<1.0 μM)
Cn1ccnc1C(=O)Nc1cccc2c(=O)n(C)c(-c3cccc(C(F)(F)F)c3)nc12 [Compound 238] | A (Fold activation>200%) | B (EC1.5 1-25 μM)

SMILES | % Fold Act. (percent maximum fold activation) | EC1.5 μM
Cc1ncsc1-c1nc2c(C(=O)Nc3ccccn3)cccc2c(=O)n1C [Compound 226] | B (Fold Activation<200%) | B (EC1.5 1-25 μM)
CCn1c(-c2cccc(C(F)(F)F)c2)nc2c(C(=O)Nc3ccccn3)cccc2c1=O [Compound 269] | B (Fold Activation<200%) | B (EC1.5 1-25 μM)
Cc1cc(NC(=O)c2cccc3c(=O)cc(-c4cccc(C(F)(F)F)c4)[nH]c23)n(C)n1 [Compound 407] | A (Fold activation>200%) | A (EC1.5<1.0 μM)
O=C(Nc1ccccn1)c1cccc2c(=O)[nH]c(-c3cccc(C(F)F)c3)nc12 [Compound 319] | B (Fold Activation<200%) | C (EC1.5>25 μM)
O=C(Nc1cccc2c(=O)[nH]c(-c3cccc(C(F)(F)F)c3)nc12)c1cnccn1 [Compound 231] | B (Fold Activation<200%) | C (EC1.5>25 μM)
O=C(Nc1cnccn1)c1cccc2c(=O)cc(-c3cccc(OC(F)(F)F)c3)[nH]c12 [Compound 442] | A (Fold activation>200%) | A (EC1.5<1.0 μM)
Cn1c(-c2cccc(C(F)(F)F)c2)nc2c(NC(=O)c3cccnc3)cccc2c1=O [Compound 240] | A (Fold activation>200%) | B (EC1.5 1-25 μM)
Cn1cc(-c2nc3c(C(=O)Nc4ccccn4)cccc3c(=O)n2C)cn1 [Compound 263] | B (Fold Activation<200%) | C (EC1.5>25 μM)
O=C(Nc1cccc2c(=O)cc(-c3cccc(C(F)(F)F)c3)[nH]c12)c1cccnc1 [Compound 419] | A (Fold activation>200%) | A (EC1.5<1.0 μM)
Cn1c(-c2cccc(C(F)(F)F)c2)nc2c(C(=O)Nc3cccnc3)cccc2c1=O [Compound 265] | A (Fold activation>200%) | B (EC1.5 1-25 μM)
O=C(Nc1cccc2c(=O)cc(-c3cccc(C(F)(F)F)c3)[nH]c12)c1ccns1 [Compound 411] | A (Fold activation>200%) | A (EC1.5<1.0 μM)
Cn1c(-c2ccc(S(C)(=O)=O)cc2)nc2c(C(=O)Nc3ccccn3)cccc2c1=O [Compound 215] | B (Fold Activation<200%) | C (EC1.5>25 μM)
O=C(Nc1nccs1)c1cccc2c(=O)cc(-c3ccccc3C(F)F)[nH]c12 [Compound 435] | A (Fold activation>200%) | B (EC1.5 1-25 μM)
O=C(Nc1cccc2c(=O)cc(-c3cccc(C(F)(F)F)c3)[nH]c12)c1ccncn1 [Compound 418] | A (Fold activation>200%) | A (EC1.5<1.0 μM)
O=C(NC1CCOC1=O)c1cccc2c(=O)cc(-c3cccc(C(F)(F)F)c3)[nH]c12 (centres unmarked) [Compound 413] | B (Fold Activation<200%) | B (EC1.5 1-25 μM)
Cc1cc(NC(=O)c2cccc3c(=O)cc(-c4cccc(C(F)(F)F)c4)[nH]c23)on1 [Compound 406] | A (Fold activation>200%) | A (EC1.5<1.0 μM)
Cn1c(-c2cccc(C(F)(F)F)c2)nc2c(C(=O)Nc3cnccn3)cccc2c1=O [Compound 219] | A (Fold activation>200%) | A (EC1.5<1.0 μM)
